inhibition, viability and Activity data for one molecule are collected here from ChEMBL document CHEMBL3112584, “Urokinase-type plasminogen activator expression and Rac1/WAVE-2/Arp2/3 pathway are blocked by pterostilbene to suppress cell migration and invasion in MDA-MB-231 cells” (Bioorg Med Chem Lett, 2014).

Data set [1] deals with MDA-MB-231. Description: Antiinvasion activity in human MDA-MB-231 cells reduction of cell assessed as inhibition of FBS-induced cell invaded to lower surface at 2 uM after 24 hrs. The format is functional. The settings on record: MDA-MB-231, 24 h.
In data set [2] the test system is MDA-MB-231. In words: Antiinvasion activity in human MDA-MB-231 cells reduction of cell assessed as inhibition of FBS-induced cell invaded to lower surface at 5 uM after 24 hrs. In kind it is functional. To be noted: MDA-MB-231, 24 h.
Data set [3] concerns MDA-MB-231. In words: Inhibition of cell migration in human MDA-MB-231 reduction of cell assessed as cells migrated into scratched area at 5 uM after 24 hrs by wound healing assay. In kind it is functional. To be noted: MDA-MB-231, 24 h.
Data set [4] can be described thus: Cytotoxicity against human MDA-MB-231 cells assessed as cell viability at 40 uM after 24 hrs by MTT assay relative to control. In kind it is cell-based. To be noted: read-out: Activity.
Data set [5] has as its system MDA-MB-231. In words: Inhibition of cell migration in human MDA-MB-231 cells assessed as reduction of cell migrated into scratched area at 10 uM after 24 hrs by wound healing assay. To be noted: MDA-MB-231, 24 h. The format is functional.
Data set [6] has as its target Urokinase-type plasminogen activator (Homo sapiens) (UniProt P00749). Description: Inhibition of uPA activity in human MDA-MB-231 cells at 5 uM. Also noted: scale not given: the % may be the effect or the level left. In kind it is cell-based.
The target in data set [7] is Ras-related C3 botulinum toxin substrate 1 (Homo sapiens) (UniProt P63000). In words: Inhibition of Rac1 in human MDA-MB-231 cells at 2 uM after 30 mins by G-LISA activity assay. In kind it is cell-based.
In data set [8] the test system is MDA-MB-231. Description: Antiinvasion activity in human MDA-MB-231 cells reduction of cell assessed as inhibition of FBS-induced cell invaded to lower surface at 10 uM after 24 hrs. In kind it is functional. To be noted: MDA-MB-231, 24 h.
Data set [9] concerns MDA-MB-231. In words: Cytotoxicity against human MDA-MB-231 cells assessed as cell viability up to 10 uM after 24 hrs by MTT assay relative to control. The format is cell-based. The settings on record: mda-mb-231, 24 h.
For data set [10], the species on record is Homo sapiens. Description: Inhibition of DNA binding of NF-kappaB (unknown origin) on uPA promoter at 10 uM by ChIP assay.
Data set [11] addresses Ras-related C3 botulinum toxin substrate 1 (Homo sapiens) (UniProt P63000). Description: Inhibition of Rac1-mediated WAVE-2/Arp2/3 expression in human MDA-MB-231 cells after […] by Western blotting analysis. The format is cell-based.
In data set [12] the test system is MDA-MB-231. Description: Inhibition of NF-kappaB activation in human MDA-MB-231 cells after 24 hrs by luciferase assay. The format is cell-based.
Data set [13] deals with MDA-MB-231. Description: Inhibition of cell migration in human MDA-MB-231 cells reduction of cell assessed as cells migrated into scratched area at 2 uM after 24 hrs by wound healing assay. The format is functional. The settings on record: MDA-MB-231, 24 h.
The target in data set [14] is Ras-related C3 botulinum toxin substrate 1 (Homo sapiens) (UniProt P63000). Description: Inhibition of Rac1 in human MDA-MB-231 cells at 10 uM after 30 mins by G-LISA activity assay. The format is cell-based.
Data set [15] addresses Urokinase-type plasminogen activator (Homo sapiens) (UniProt P00749). Description: Inhibition of uPA activity in human MDA-MB-231 cells at 10 uM. The format is cell-based. Also noted: scale not given: the % may be the effect or the level left.
Data set [16] concerns MDA-MB-231. In words: Down-regulation of uPAR mRNA expression in human MDA-MB-231 cells at 2 to 10 uM after 24 hrs by RT-PCR analysis. In kind it is functional, cell-based.
Data set [17] relates to MDA-MB-231. In words: Down-regulation of uPA mRNA expression in human MDA-MB-231 cells after 24 hrs by RT-PCR analysis. In kind it is functional, cell-based.
Data set [18] concerns the target Ras-related C3 botulinum toxin substrate 1 (Homo sapiens) (UniProt P63000). In words: Inhibition of Rac1 in human MDA-MB-231 cells at 5 uM after 30 mins by G-LISA activity assay. In kind it is cell-based.

Active and inactive are the calls of the source. The rule behind the calls is not given here.

Turning to `COc1cc(/C=C/c2ccc(O)cc2)cc(OC)c1` [PTEROSTILBENE], the inhibition at 2 µM in data set [1] was 20%; in data set [13], 25%. The inhibition at 5 µM worked out at 29% in [2] and 59% in data set [3]. In [4], the viability at 24 h, 40 µM came out at 40%. In addition, the inhibition at 10 µM in data set [5] was found to be 76%; in [8], 38%. Moreover, the Activity in data set [6] is 25%; in data set [9], “Non-toxic”; in data set [15] it was 61%; in [17] it was “Dose-dependent effect”. Further, the inhibition in data set [7] is 14%; in data set [11], “Dose-dependent effect”; in data set [12], “Dose-dependent effect”; in data set [14] it was 27%; in data set [18] it was 22%. In addition, the inhibition result in [10] is “Active”. Further, in data set [16], the outcome was inactive.
